Data as given in ChEMBL document CHEMBL3885881, “DrugMatrix”.

Organism: Rattus norvegicus
Test: DrugMatrix - Regimen: Daily Repeat
Type: toxicity, organism-based, Sprague-Dawley
Design: regimen Daily Repeat, gender Male, age 6-8 weeks
Settings: in vivo, po, route oral GAVAGE, vehicle .5 % CMC; for ABSOLUTE BASOPHIL / ABSOLUTE EOSINOPHIL / ABSOLUTE LYMPHOCYTE / ABSOLUTE MONOCYTE / ABSOLUTE SEGMENTED NEUTROPHIL / BASOPHIL / EOSINOPHIL / ERYTHROCYTE COUNT / HEMATOCRIT / HEMOGLOBIN / LEUKOCYTE COUNT / LYMPHOCYTE / MEAN CORPUSCULAR HEMOGLOBIN / MEAN CORPUSCULAR HEMOGLOBIN CONCENTRATION / MEAN CORPUSCULAR VOLUME / MONOCYTE / NEUTROPHIL / NUCLEATED RED BLOOD CELLS / PLATELET COUNT: tissue Blood; for ALANINE AMINOTRANSFERASE / ALBUMIN / ALKALINE PHOSPHATASE / ASPARTATE AMINOTRANSFERASE / BLOOD UREA NITROGEN / CARBON DIOXIDE / CHLORIDE / CHOLESTEROL / CREATINE PHOSPHOKINASE / CREATININE / GLUCOSE / LACTATE DEHYDROGENASE / LIPASE / PHOSPHORUS / POTASSIUM / SODIUM / TOTAL BILIRUBIN / TOTAL PROTEIN / URIC ACID: tissue Plasma
[1] = 0 mg/kg, 72 h, dose level Control, time 3 day
[2] = 0 mg/kg, 120 h, dose level Control, time 5 day
[3] = 25 mg/kg, 72 h, dose level Low, time 3 day
[4] = 25 mg/kg, 120 h, dose level Low, time 5 day

CCCCC1C(=O)N(c2ccccc2)N(c2ccccc2)C1=O [PHENYLBUTAZONE]
ABSOLUTE BASOPHIL [1]: 0 CELLS/uL | ABSOLUTE EOSINOPHIL [1]: 35.67 CELLS/uL | ABSOLUTE LYMPHOCYTE [1]: 9125.17 CELLS/uL | ABSOLUTE MONOCYTE [1]: 50.17 CELLS/uL | ABSOLUTE SEGMENTED NEUTROPHIL [1]: 722.33 CELLS/uL | BASOPHIL [1]: 0% | EOSINOPHIL [1]: 0.33% | ERYTHROCYTE COUNT [1]: 5.35 x10E6/uL | HEMATOCRIT [1]: 33.58% | HEMOGLOBIN [1]: 13.35 G/DL | LEUKOCYTE COUNT [1]: 9.93 x10E3/uL | LYMPHOCYTE [1]: 91.67% | MEAN CORPUSCULAR HEMOGLOBIN [1]: 25 pg | MEAN CORPUSCULAR HEMOGLOBIN CONCENTRATION [1]: 39.8 G/DL | MEAN CORPUSCULAR VOLUME [1]: 62.77 fL | MONOCYTE [1]: 0.67% | NEUTROPHIL [1]: 7.33% | NUCLEATED RED BLOOD CELLS [1]: 0 /100WBC | PLATELET COUNT [1]: 866.17 x10E3/uL | ALANINE AMINOTRANSFERASE [1]: 57.17 u/L | ALBUMIN [1]: 4.22 G/DL | ALKALINE PHOSPHATASE [1]: 391 u/L | ASPARTATE AMINOTRANSFERASE [1]: 95.17 u/L | BLOOD UREA NITROGEN [1]: 13.67 mg/dL | CARBON DIOXIDE [1]: 30 mmol/L | CHLORIDE [1]: 102.5 MEQ/L | CHOLESTEROL [1]: 72 mg/dL | CREATINE PHOSPHOKINASE [1]: 485.67 u/L | CREATININE [1]: 0.27 mg/dL | GLUCOSE [1]: 152 mg/dL | LACTATE DEHYDROGENASE [1]: 372.67 u/L | LIPASE [1]: 9.83 u/L | PHOSPHORUS [1]: 12.47 mg/dL | POTASSIUM [1]: 6.81 MEQ/L | SODIUM [1]: 144.1 MEQ/L | TOTAL BILIRUBIN [1]: 0.23 mg/dL | TOTAL PROTEIN [1]: 5.93 G/DL | URIC ACID [1]: 1.9 mg/dL | ABSOLUTE BASOPHIL [2]: 0 CELLS/uL | ABSOLUTE EOSINOPHIL [2]: 67.33 CELLS/uL | ABSOLUTE LYMPHOCYTE [2]: 11419.17 CELLS/uL | ABSOLUTE MONOCYTE [2]: 203.17 CELLS/uL | ABSOLUTE SEGMENTED NEUTROPHIL [2]: 1327 CELLS/uL | BASOPHIL [2]: 0% | EOSINOPHIL [2]: 0.5% | ERYTHROCYTE COUNT [2]: 5.65 x10E6/uL | HEMATOCRIT [2]: 35.3% | HEMOGLOBIN [2]: 13.98 G/DL | LEUKOCYTE COUNT [2]: 13.02 x10E3/uL | LYMPHOCYTE [2]: 88% | MEAN CORPUSCULAR HEMOGLOBIN [2]: 24.78 pg | MEAN CORPUSCULAR HEMOGLOBIN CONCENTRATION [2]: 39.63 G/DL | MEAN CORPUSCULAR VOLUME [2]: 62.58 fL | MONOCYTE [2]: 1.33% | NEUTROPHIL [2]: 10.17% | NUCLEATED RED BLOOD CELLS [2]: 0 /100WBC | PLATELET COUNT [2]: 1213.83 x10E3/uL | ALANINE AMINOTRANSFERASE [2]: 49.67 u/L | ALBUMIN [2]: 4.28 G/DL | ALKALINE PHOSPHATASE [2]: 362.33 u/L | ASPARTATE AMINOTRANSFERASE [2]: 99 u/L | BLOOD UREA NITROGEN [2]: 20.67 mg/dL | CARBON DIOXIDE [2]: 26.33 mmol/L | CHLORIDE [2]: 102 MEQ/L | CHOLESTEROL [2]: 63.83 mg/dL | CREATINE PHOSPHOKINASE [2]: 481.83 u/L | CREATININE [2]: 0.21 mg/dL | GLUCOSE [2]: 158 mg/dL | LACTATE DEHYDROGENASE [2]: 656.33 u/L | LIPASE [2]: 10.67 u/L | PHOSPHORUS [2]: 12.27 mg/dL | POTASSIUM [2]: 6.17 MEQ/L | SODIUM [2]: 143.35 MEQ/L | TOTAL BILIRUBIN [2]: 0.17 mg/dL | TOTAL PROTEIN [2]: 6.13 G/DL | URIC ACID [2]: 1.48 mg/dL | ABSOLUTE BASOPHIL [3]: 0 CELLS/uL | ABSOLUTE EOSINOPHIL [3]: 0 CELLS/uL | ABSOLUTE LYMPHOCYTE [3]: 8397.33 CELLS/uL | ABSOLUTE MONOCYTE [3]: 56.33 CELLS/uL | ABSOLUTE SEGMENTED NEUTROPHIL [3]: 846.33 CELLS/uL | BASOPHIL [3]: 0% | EOSINOPHIL [3]: 0% | ERYTHROCYTE COUNT [3]: 5.18 x10E6/uL | HEMATOCRIT [3]: 33.27% | HEMOGLOBIN [3]: 13.33 G/DL | LEUKOCYTE COUNT [3]: 9.3 x10E3/uL | LYMPHOCYTE [3]: 90.67% | MEAN CORPUSCULAR HEMOGLOBIN [3]: 25.83 pg | MEAN CORPUSCULAR HEMOGLOBIN CONCENTRATION [3]: 40.17 G/DL | MEAN CORPUSCULAR VOLUME [3]: 64.37 fL | MONOCYTE [3]: 0.67% | NEUTROPHIL [3]: 8.67% | NUCLEATED RED BLOOD CELLS [3]: 0 /100WBC | PLATELET COUNT [3]: 982.67 x10E3/uL | ALANINE AMINOTRANSFERASE [3]: 57 u/L | ALBUMIN [3]: 4.4 G/DL | ALKALINE PHOSPHATASE [3]: 377 u/L | ASPARTATE AMINOTRANSFERASE [3]: 101.33 u/L | BLOOD UREA NITROGEN [3]: 16.33 mg/dL | CARBON DIOXIDE [3]: 29.33 mmol/L | CHLORIDE [3]: 103 MEQ/L | CHOLESTEROL [3]: 73 mg/dL | CREATINE PHOSPHOKINASE [3]: 583.33 u/L | CREATININE [3]: 0.17 mg/dL | GLUCOSE [3]: 154.67 mg/dL | LACTATE DEHYDROGENASE [3]: 337.67 u/L | LIPASE [3]: 8.67 u/L | PHOSPHORUS [3]: 12.6 mg/dL | POTASSIUM [3]: 6.38 MEQ/L | SODIUM [3]: 143.37 MEQ/L | TOTAL BILIRUBIN [3]: 0.13 mg/dL | TOTAL PROTEIN [3]: 5.87 G/DL | URIC ACID [3]: 1.67 mg/dL | ABSOLUTE BASOPHIL [4]: 0 CELLS/uL | ABSOLUTE EOSINOPHIL [4]: 72 CELLS/uL | ABSOLUTE LYMPHOCYTE [4]: 8896 CELLS/uL | ABSOLUTE MONOCYTE [4]: 33 CELLS/uL | ABSOLUTE SEGMENTED NEUTROPHIL [4]: 999 CELLS/uL | BASOPHIL [4]: 0% | EOSINOPHIL [4]: 0.67% | ERYTHROCYTE COUNT [4]: 5 x10E6/uL | HEMATOCRIT [4]: 31.63% | HEMOGLOBIN [4]: 12.6 G/DL | LEUKOCYTE COUNT [4]: 10 x10E3/uL | LYMPHOCYTE [4]: 89% | MEAN CORPUSCULAR HEMOGLOBIN [4]: 25.27 pg | MEAN CORPUSCULAR HEMOGLOBIN CONCENTRATION [4]: 39.87 G/DL | MEAN CORPUSCULAR VOLUME [4]: 63.4 fL | MONOCYTE [4]: 0.33% | NEUTROPHIL [4]: 10% | NUCLEATED RED BLOOD CELLS [4]: 0 /100WBC | PLATELET COUNT [4]: 635.33 x10E3/uL | ALANINE AMINOTRANSFERASE [4]: 52 u/L | ALBUMIN [4]: 4.53 G/DL | ALKALINE PHOSPHATASE [4]: 362 u/L | ASPARTATE AMINOTRANSFERASE [4]: 82.33 u/L | BLOOD UREA NITROGEN [4]: 20 mg/dL | CARBON DIOXIDE [4]: 25 mmol/L | CHLORIDE [4]: 105.67 MEQ/L | CHOLESTEROL [4]: 71.33 mg/dL | CREATINE PHOSPHOKINASE [4]: 253 u/L | CREATININE [4]: 0.26 mg/dL | GLUCOSE [4]: 148 mg/dL | LACTATE DEHYDROGENASE [4]: 409.67 u/L | LIPASE [4]: 11 u/L | PHOSPHORUS [4]: 11.9 mg/dL | POTASSIUM [4]: 6.52 MEQ/L | SODIUM [4]: 146.6 MEQ/L | TOTAL BILIRUBIN [4]: 0.2 mg/dL | TOTAL PROTEIN [4]: 6.2 G/DL | URIC ACID [4]: 1.47 mg/dL
